Here are results for 9 sequences from US8628781B2, “Prevention and treatment of cast nephropathy” (The UAB Research Foundation, priority 2010, dated 2014).

Entries after “also recorded” stand apart in the source; their conditions may differ. Bridges are numbered along the chain shown (N, C = ends). Where no end group is shown, it is not given here.

The target of assay [1] is T1, Tamm-Horsfall protein (Homo sapiens, UniProt P07911). Kind of assay: Competitive ELISA: peptide inhibition of Tamm-Horsfall protein binding to immunoglobulin light chains bound in microtiter wells. The conditions noted are these: for inhibition of binding between Tamm-Horsfall protein and human light chains (in words): six human light chains (λ2, 3 and 5 and κ3, 6, and 7), FIG. 7; for inhibition of binding of Tamm-Horsfall protein to immunoglobulin light chain (in words): uncyclized and cyclized peptide, FIG. 5. An excerpt:
Peptides known to react with the Tamm-Horsfall protein in the yeast two-hybrid assay were synthesized, cyclized, and used as inhibitors in a competitive ELISA experiment. The peptides were cyclized by adding cysteine residues to the amino and carboxyl-terminal portions of the peptides and generating an intramolecular disulfide bridge (FIG. 4). Cyclization facilitates formation of the loop structure in solution. Both the linear and cyclized peptides inhibited the binding of the Tamm-Horsfall protein to the immunoglobulin light chains bound in the wells of the microtiter plate, but the efficiency of inhibition was increased by cyclization of the peptide inhibitor.
(§1) Mutation of the CDR3 sequence to disrupt the loop structure by substituting amino acid residues with phenyalanine confirmed that the secondary structure was an important determinant of binding (FIG. 6). The inhibitory capability of cyclized experimental (CLSADSSGSYLYVC (SEQ ID NO:32)) and control (CLSAFSFGFYLYVC (SEQ ID NO:33)) peptides were then compared in a competitive ELISA assay.
In general terms: An ELISA detects its analyte on a solid surface through an enzyme-linked reagent.

For assay [2], the system named is Tamm-Horsfall protein. Kind of assay: Yeast two-hybrid assay of CDR3 inserts ligated between Framework 2 and Framework 3 of LKPBLL53. The conditions noted are these: FIG. 6, N=7. Format: binding, human.
Text: Addition of the framework regions permits each CDR3, which was ligated into the construct using Sma1 and BamH1, to achieve proper folding into a loop structure. […] The CDR3 domain of ITPBLL2 differed from the CDR3 domain of ITPBLL1 (SEQ ID NO:28) by only two amino acids (underlined), which were sufficient to inhibit formation of a loop structure, and, thus, binding to the Tamm-Horsfall protein. […] N=6 experiments for each group.
Among those CDR3 domains that were predicted to form a loop, affinity for the Tamm-Horsfall protein was strong and correlated with that observed using the intact VL from the parent light chain.
as §1

The test system of assay [3] is rat model of cast nephropathy. Kind of assay: Rat model of cast nephropathy by administration of human kappa and lambda light chains. Format: in vivo. Conditions: rats given human kappa and lambda light chains. Here is the method: The competitor peptides, SEQ ID NO:1 and SEQ ID NO:2, have been used in a rat model of cast nephropathy, which employed administration of human kappa and lambda light chains. […] Rats were injected intraperitoneally with 40 mg of cyclized competitor peptide, SEQ ID NO:2 (pep), or vehicle alone (veh) just prior to intraperitoneal injection of 100 mg of human kappa or lambda light chain purified from patients who had multiple myeloma and kidney damage. On the following day, rats also received an additional injection of competitor peptides, SEQ ID NO:1 (20 mg) or vehicle. Rats were examined three days after the initial injection.

Assay [4] has as its target T1, Tamm-Horsfall protein. Put plainly: Competition studies of synthetic CDR3 peptide with light chains from myeloma patients for binding to Tamm-Horsfall protein. Conditions: six different immunoglobulin light chains from patients with myeloma and cast nephropathy. The text has this:
The yeast two-hybrid system was employed to determine the site on the immunoglobulin light chain that interacted with the Tamm-Horsfall protein. Using 248- and 787-base pair fragments of the Tamm-Horsfall protein, which contained the previously described immunoglobulin light chain-binding domain, the interaction with unique immunoglobulin light chains that represented a variety of the known isotypes of κ and λ immunoglobulin light chains was examined. […] While this was considered an advance, this peptide was not considered to bind avidly enough to the Tamm-Horsfall protein to serve as an effective inhibitor in vivo.

Turning to “CLSADSSGSYLYVC (disulfide 1-14 (inferred)) [cyclized experimental peptide]”, in the assay with Tamm-Horsfall protein [1], the “inhibition of binding between Tamm-Horsfall protein and human light chains (in words)” value is on record as “completely prevented the binding; also recorded: very efficient inhibitor”.

With “CLSAFSFGFYLYVC (disulfide 1-14 (inferred)) [cyclized control peptide, reference compound]”, the “inhibition of binding between Tamm-Horsfall protein and human light chains (in words)” value with Tamm-Horsfall protein [1] was “did not effectively inhibit binding”.

For LSADSSGSYLYV, the “interaction of wildtype and phenylalanine-mutated CDR3 sequence with Tamm-Horsfall protein (in words)” value (“interaction” below) in the assay with Tamm-Horsfall protein [2] is reported as “interacted strongly”.

In the case of “LSADSSGSYLYVF [peptide 2, LSADSSGSYLYVF]”, the “inhibition of binding of Tamm-Horsfall protein to immunoglobulin light chain (in words)” value on Tamm-Horsfall protein [1] was “inhibit binding”. In addition, the “effect on cast formation, acute renal failure and renal function (in words)” value in assay [3] was “prevented cast formation and acute renal failure and improved renal function”.

On to “LSAFSFGFYLYV [ITPBLL86 CDR3 mutated with three phenylalanines]”, for which, in the assay with Tamm-Horsfall protein [2], the “interaction” value was “none of the mutated sequences interacted”.

Regarding “LSAFSFGSYLYV [ITPBLL86 CDR3 mutated with two phenylalanines]”, the “interaction” value with Tamm-Horsfall protein [2] is “none of the mutated sequences interacted”.

For “LSAFSSGSYLYV [ITPBLL86 CDR3 mutated with one phenylalanine]”, in the assay on Tamm-Horsfall protein [2], the “interaction” value is reported as “none of the mutated sequences interacted”.

As for “MQGTHWPPLT [synthetic peptide identical to the CDR3 region of SSH23]”, the “competition with light chains for binding to Tamm-Horsfall protein (in words)” value with Tamm-Horsfall protein [4] was “effectively competed”.

Regarding “QSYDNTLSGSYVF [peptide 1, QSYDNTLSGSYVF]”, the “inhibition of binding of Tamm-Horsfall protein to immunoglobulin light chain (in words)” value at Tamm-Horsfall protein [1] is “inhibit binding”. For the same sequence, in assay [3], the “effect on cast formation, acute renal failure and renal function (in words)” value was “prevented cast formation and acute renal failure and improved renal function”.
